Data from ChEMBL document CHEMBL3885881, “DrugMatrix”.

Organism: Rattus norvegicus
Assay: DrugMatrix - Regimen: Daily Repeat
Type: toxicity, organism-based, Sprague-Dawley
Parameters: regimen Daily Repeat, gender Male, age 6-8 weeks
Conditions: in vivo, po, route oral GAVAGE, vehicle .5 % CMC; for ABSOLUTE BASOPHIL / ABSOLUTE EOSINOPHIL / ABSOLUTE LYMPHOCYTE / ABSOLUTE MONOCYTE / ABSOLUTE SEGMENTED NEUTROPHIL / BASOPHIL / EOSINOPHIL / ERYTHROCYTE COUNT / HEMATOCRIT / HEMOGLOBIN / LEUKOCYTE COUNT / LYMPHOCYTE / MEAN CORPUSCULAR HEMOGLOBIN / MEAN CORPUSCULAR HEMOGLOBIN CONCENTRATION / MEAN CORPUSCULAR VOLUME / MONOCYTE / NEUTROPHIL / NUCLEATED RED BLOOD CELLS / PLATELET COUNT: tissue Blood; for ALANINE AMINOTRANSFERASE / ALBUMIN / ALKALINE PHOSPHATASE / ASPARTATE AMINOTRANSFERASE / BLOOD UREA NITROGEN / CARBON DIOXIDE / CHLORIDE / CHOLESTEROL / CREATINE PHOSPHOKINASE / CREATININE / GLUCOSE / LACTATE DEHYDROGENASE / LIPASE / PHOSPHORUS / POTASSIUM / SODIUM / TOTAL BILIRUBIN / TOTAL PROTEIN / URIC ACID: tissue Plasma
[1] = 10 mg/kg, 72 h, dose level Low, time 3 day
[2] = 10 mg/kg, 120 h, dose level Low, time 5 day
[3] = 350 mg/kg, 72 h, dose level High, time 3 day

## CCC1(c2ccc(N)cc2)CCC(=O)NC1=O (centres undefined) [AMINOGLUTETHIMIDE]
[1]
  ABSOLUTE BASOPHIL: 0 CELLS/uL
  ABSOLUTE EOSINOPHIL: 0 CELLS/uL
  ABSOLUTE LYMPHOCYTE: 11710.67 CELLS/uL
  ABSOLUTE MONOCYTE: 267.33 CELLS/uL
  ABSOLUTE SEGMENTED NEUTROPHIL: 2622 CELLS/uL
  BASOPHIL: 0%
  EOSINOPHIL: 0%
  ERYTHROCYTE COUNT: 5.37 x10E6/uL
  HEMATOCRIT: 34.23%
  HEMOGLOBIN: 13.47 G/DL
  LEUKOCYTE COUNT: 14.6 x10E3/uL
  LYMPHOCYTE: 80.33%
  MEAN CORPUSCULAR HEMOGLOBIN: 25.1 pg
  MEAN CORPUSCULAR HEMOGLOBIN CONCENTRATION: 39.33 G/DL
  MEAN CORPUSCULAR VOLUME: 63.77 fL
  MONOCYTE: 1.67%
  NEUTROPHIL: 18%
  NUCLEATED RED BLOOD CELLS: 0 /100WBC
  PLATELET COUNT: 1364.33 x10E3/uL
  ALANINE AMINOTRANSFERASE: 54.67 u/L
  ALBUMIN: 4.07 G/DL
  ALKALINE PHOSPHATASE: 367 u/L
  ASPARTATE AMINOTRANSFERASE: 87.33 u/L
  BLOOD UREA NITROGEN: 17 mg/dL
  CARBON DIOXIDE: 26 mmol/L
  CHLORIDE: 102 MEQ/L
  CHOLESTEROL: 69.33 mg/dL
  CREATINE PHOSPHOKINASE: 357.33 u/L
  CREATININE: 0.16 mg/dL
  GLUCOSE: 160 mg/dL
  LACTATE DEHYDROGENASE: 241.67 u/L
  LIPASE: 9.33 u/L
  PHOSPHORUS: 13 mg/dL
  POTASSIUM: 6.52 MEQ/L
  SODIUM: 143.27 MEQ/L
  TOTAL BILIRUBIN: 0.2 mg/dL
  TOTAL PROTEIN: 5.67 G/DL
  URIC ACID: 1.83 mg/dL
[2]
  ABSOLUTE BASOPHIL: 0 CELLS/uL
  ABSOLUTE EOSINOPHIL: 0 CELLS/uL
  ABSOLUTE LYMPHOCYTE: 14655 CELLS/uL
  ABSOLUTE MONOCYTE: 54.33 CELLS/uL
  ABSOLUTE SEGMENTED NEUTROPHIL: 1457.33 CELLS/uL
  BASOPHIL: 0%
  EOSINOPHIL: 0%
  ERYTHROCYTE COUNT: 5.82 x10E6/uL
  HEMATOCRIT: 35.6%
  HEMOGLOBIN: 14.1 G/DL
  LEUKOCYTE COUNT: 16.17 x10E3/uL
  LYMPHOCYTE: 90.67%
  MEAN CORPUSCULAR HEMOGLOBIN: 24.23 pg
  MEAN CORPUSCULAR HEMOGLOBIN CONCENTRATION: 39.67 G/DL
  MEAN CORPUSCULAR VOLUME: 61.17 fL
  MONOCYTE: 0.33%
  NEUTROPHIL: 9%
  NUCLEATED RED BLOOD CELLS: 0 /100WBC
  PLATELET COUNT: 1044 x10E3/uL
  ALANINE AMINOTRANSFERASE: 56 u/L
  ALBUMIN: 4.33 G/DL
  ALKALINE PHOSPHATASE: 463 u/L
  ASPARTATE AMINOTRANSFERASE: 91.67 u/L
  BLOOD UREA NITROGEN: 16.67 mg/dL
  CARBON DIOXIDE: 27 mmol/L
  CHLORIDE: 100 MEQ/L
  CHOLESTEROL: 67 mg/dL
  CREATINE PHOSPHOKINASE: 282 u/L
  CREATININE: 0.2 mg/dL
  GLUCOSE: 155.67 mg/dL
  LACTATE DEHYDROGENASE: 347.67 u/L
  LIPASE: 12.33 u/L
  PHOSPHORUS: 11.8 mg/dL
  POTASSIUM: 6.27 MEQ/L
  SODIUM: 142.47 MEQ/L
  TOTAL BILIRUBIN: 0.17 mg/dL
  TOTAL PROTEIN: 5.87 G/DL
  URIC ACID: 1.8 mg/dL
[3]
  ABSOLUTE BASOPHIL: 0 CELLS/uL
  ABSOLUTE EOSINOPHIL: 0 CELLS/uL
  ABSOLUTE LYMPHOCYTE: 12308.33 CELLS/uL
  ABSOLUTE MONOCYTE: 135 CELLS/uL
  ABSOLUTE SEGMENTED NEUTROPHIL: 1890 CELLS/uL
  BASOPHIL: 0%
  EOSINOPHIL: 0%
  ERYTHROCYTE COUNT: 6.41 x10E6/uL
  HEMATOCRIT: 37.93%
  HEMOGLOBIN: 15.13 G/DL
  LEUKOCYTE COUNT: 14.33 x10E3/uL
  LYMPHOCYTE: 84.67%
  MEAN CORPUSCULAR HEMOGLOBIN: 23.57 pg
  MEAN CORPUSCULAR HEMOGLOBIN CONCENTRATION: 39.87 G/DL
  MEAN CORPUSCULAR VOLUME: 59.1 fL
  MONOCYTE: 1%
  NEUTROPHIL: 14.33%
  NUCLEATED RED BLOOD CELLS: 0 /100WBC
  PLATELET COUNT: 1180.67 x10E3/uL
  ALANINE AMINOTRANSFERASE: 78.33 u/L
  ALBUMIN: 3.73 G/DL
  ALKALINE PHOSPHATASE: 251.67 u/L
  ASPARTATE AMINOTRANSFERASE: 137.67 u/L
  BLOOD UREA NITROGEN: 12 mg/dL
  CARBON DIOXIDE: 27.33 mmol/L
  CHLORIDE: 100 MEQ/L
  CHOLESTEROL: 103.67 mg/dL
  CREATINE PHOSPHOKINASE: 398 u/L
  CREATININE: 0.14 mg/dL
  GLUCOSE: 120 mg/dL
  LACTATE DEHYDROGENASE: 202.67 u/L
  LIPASE: 10.33 u/L
  PHOSPHORUS: 12.03 mg/dL
  POTASSIUM: 5.62 MEQ/L
  SODIUM: 144.37 MEQ/L
  TOTAL BILIRUBIN: 0.13 mg/dL
  TOTAL PROTEIN: 5.23 G/DL
  URIC ACID: 1.73 mg/dL
